Values quoted from earlier work in patent US20230023289A1, “ANTHRANILAMIDE COMPOSITION” (priority 2019, published 2023).

Biological target: insect ryanodine receptors (Drosophila melanogaster, UniProt Q24498)
Conditions: in words

Sequence of insect ryanodine receptors (Q24498 whole entry): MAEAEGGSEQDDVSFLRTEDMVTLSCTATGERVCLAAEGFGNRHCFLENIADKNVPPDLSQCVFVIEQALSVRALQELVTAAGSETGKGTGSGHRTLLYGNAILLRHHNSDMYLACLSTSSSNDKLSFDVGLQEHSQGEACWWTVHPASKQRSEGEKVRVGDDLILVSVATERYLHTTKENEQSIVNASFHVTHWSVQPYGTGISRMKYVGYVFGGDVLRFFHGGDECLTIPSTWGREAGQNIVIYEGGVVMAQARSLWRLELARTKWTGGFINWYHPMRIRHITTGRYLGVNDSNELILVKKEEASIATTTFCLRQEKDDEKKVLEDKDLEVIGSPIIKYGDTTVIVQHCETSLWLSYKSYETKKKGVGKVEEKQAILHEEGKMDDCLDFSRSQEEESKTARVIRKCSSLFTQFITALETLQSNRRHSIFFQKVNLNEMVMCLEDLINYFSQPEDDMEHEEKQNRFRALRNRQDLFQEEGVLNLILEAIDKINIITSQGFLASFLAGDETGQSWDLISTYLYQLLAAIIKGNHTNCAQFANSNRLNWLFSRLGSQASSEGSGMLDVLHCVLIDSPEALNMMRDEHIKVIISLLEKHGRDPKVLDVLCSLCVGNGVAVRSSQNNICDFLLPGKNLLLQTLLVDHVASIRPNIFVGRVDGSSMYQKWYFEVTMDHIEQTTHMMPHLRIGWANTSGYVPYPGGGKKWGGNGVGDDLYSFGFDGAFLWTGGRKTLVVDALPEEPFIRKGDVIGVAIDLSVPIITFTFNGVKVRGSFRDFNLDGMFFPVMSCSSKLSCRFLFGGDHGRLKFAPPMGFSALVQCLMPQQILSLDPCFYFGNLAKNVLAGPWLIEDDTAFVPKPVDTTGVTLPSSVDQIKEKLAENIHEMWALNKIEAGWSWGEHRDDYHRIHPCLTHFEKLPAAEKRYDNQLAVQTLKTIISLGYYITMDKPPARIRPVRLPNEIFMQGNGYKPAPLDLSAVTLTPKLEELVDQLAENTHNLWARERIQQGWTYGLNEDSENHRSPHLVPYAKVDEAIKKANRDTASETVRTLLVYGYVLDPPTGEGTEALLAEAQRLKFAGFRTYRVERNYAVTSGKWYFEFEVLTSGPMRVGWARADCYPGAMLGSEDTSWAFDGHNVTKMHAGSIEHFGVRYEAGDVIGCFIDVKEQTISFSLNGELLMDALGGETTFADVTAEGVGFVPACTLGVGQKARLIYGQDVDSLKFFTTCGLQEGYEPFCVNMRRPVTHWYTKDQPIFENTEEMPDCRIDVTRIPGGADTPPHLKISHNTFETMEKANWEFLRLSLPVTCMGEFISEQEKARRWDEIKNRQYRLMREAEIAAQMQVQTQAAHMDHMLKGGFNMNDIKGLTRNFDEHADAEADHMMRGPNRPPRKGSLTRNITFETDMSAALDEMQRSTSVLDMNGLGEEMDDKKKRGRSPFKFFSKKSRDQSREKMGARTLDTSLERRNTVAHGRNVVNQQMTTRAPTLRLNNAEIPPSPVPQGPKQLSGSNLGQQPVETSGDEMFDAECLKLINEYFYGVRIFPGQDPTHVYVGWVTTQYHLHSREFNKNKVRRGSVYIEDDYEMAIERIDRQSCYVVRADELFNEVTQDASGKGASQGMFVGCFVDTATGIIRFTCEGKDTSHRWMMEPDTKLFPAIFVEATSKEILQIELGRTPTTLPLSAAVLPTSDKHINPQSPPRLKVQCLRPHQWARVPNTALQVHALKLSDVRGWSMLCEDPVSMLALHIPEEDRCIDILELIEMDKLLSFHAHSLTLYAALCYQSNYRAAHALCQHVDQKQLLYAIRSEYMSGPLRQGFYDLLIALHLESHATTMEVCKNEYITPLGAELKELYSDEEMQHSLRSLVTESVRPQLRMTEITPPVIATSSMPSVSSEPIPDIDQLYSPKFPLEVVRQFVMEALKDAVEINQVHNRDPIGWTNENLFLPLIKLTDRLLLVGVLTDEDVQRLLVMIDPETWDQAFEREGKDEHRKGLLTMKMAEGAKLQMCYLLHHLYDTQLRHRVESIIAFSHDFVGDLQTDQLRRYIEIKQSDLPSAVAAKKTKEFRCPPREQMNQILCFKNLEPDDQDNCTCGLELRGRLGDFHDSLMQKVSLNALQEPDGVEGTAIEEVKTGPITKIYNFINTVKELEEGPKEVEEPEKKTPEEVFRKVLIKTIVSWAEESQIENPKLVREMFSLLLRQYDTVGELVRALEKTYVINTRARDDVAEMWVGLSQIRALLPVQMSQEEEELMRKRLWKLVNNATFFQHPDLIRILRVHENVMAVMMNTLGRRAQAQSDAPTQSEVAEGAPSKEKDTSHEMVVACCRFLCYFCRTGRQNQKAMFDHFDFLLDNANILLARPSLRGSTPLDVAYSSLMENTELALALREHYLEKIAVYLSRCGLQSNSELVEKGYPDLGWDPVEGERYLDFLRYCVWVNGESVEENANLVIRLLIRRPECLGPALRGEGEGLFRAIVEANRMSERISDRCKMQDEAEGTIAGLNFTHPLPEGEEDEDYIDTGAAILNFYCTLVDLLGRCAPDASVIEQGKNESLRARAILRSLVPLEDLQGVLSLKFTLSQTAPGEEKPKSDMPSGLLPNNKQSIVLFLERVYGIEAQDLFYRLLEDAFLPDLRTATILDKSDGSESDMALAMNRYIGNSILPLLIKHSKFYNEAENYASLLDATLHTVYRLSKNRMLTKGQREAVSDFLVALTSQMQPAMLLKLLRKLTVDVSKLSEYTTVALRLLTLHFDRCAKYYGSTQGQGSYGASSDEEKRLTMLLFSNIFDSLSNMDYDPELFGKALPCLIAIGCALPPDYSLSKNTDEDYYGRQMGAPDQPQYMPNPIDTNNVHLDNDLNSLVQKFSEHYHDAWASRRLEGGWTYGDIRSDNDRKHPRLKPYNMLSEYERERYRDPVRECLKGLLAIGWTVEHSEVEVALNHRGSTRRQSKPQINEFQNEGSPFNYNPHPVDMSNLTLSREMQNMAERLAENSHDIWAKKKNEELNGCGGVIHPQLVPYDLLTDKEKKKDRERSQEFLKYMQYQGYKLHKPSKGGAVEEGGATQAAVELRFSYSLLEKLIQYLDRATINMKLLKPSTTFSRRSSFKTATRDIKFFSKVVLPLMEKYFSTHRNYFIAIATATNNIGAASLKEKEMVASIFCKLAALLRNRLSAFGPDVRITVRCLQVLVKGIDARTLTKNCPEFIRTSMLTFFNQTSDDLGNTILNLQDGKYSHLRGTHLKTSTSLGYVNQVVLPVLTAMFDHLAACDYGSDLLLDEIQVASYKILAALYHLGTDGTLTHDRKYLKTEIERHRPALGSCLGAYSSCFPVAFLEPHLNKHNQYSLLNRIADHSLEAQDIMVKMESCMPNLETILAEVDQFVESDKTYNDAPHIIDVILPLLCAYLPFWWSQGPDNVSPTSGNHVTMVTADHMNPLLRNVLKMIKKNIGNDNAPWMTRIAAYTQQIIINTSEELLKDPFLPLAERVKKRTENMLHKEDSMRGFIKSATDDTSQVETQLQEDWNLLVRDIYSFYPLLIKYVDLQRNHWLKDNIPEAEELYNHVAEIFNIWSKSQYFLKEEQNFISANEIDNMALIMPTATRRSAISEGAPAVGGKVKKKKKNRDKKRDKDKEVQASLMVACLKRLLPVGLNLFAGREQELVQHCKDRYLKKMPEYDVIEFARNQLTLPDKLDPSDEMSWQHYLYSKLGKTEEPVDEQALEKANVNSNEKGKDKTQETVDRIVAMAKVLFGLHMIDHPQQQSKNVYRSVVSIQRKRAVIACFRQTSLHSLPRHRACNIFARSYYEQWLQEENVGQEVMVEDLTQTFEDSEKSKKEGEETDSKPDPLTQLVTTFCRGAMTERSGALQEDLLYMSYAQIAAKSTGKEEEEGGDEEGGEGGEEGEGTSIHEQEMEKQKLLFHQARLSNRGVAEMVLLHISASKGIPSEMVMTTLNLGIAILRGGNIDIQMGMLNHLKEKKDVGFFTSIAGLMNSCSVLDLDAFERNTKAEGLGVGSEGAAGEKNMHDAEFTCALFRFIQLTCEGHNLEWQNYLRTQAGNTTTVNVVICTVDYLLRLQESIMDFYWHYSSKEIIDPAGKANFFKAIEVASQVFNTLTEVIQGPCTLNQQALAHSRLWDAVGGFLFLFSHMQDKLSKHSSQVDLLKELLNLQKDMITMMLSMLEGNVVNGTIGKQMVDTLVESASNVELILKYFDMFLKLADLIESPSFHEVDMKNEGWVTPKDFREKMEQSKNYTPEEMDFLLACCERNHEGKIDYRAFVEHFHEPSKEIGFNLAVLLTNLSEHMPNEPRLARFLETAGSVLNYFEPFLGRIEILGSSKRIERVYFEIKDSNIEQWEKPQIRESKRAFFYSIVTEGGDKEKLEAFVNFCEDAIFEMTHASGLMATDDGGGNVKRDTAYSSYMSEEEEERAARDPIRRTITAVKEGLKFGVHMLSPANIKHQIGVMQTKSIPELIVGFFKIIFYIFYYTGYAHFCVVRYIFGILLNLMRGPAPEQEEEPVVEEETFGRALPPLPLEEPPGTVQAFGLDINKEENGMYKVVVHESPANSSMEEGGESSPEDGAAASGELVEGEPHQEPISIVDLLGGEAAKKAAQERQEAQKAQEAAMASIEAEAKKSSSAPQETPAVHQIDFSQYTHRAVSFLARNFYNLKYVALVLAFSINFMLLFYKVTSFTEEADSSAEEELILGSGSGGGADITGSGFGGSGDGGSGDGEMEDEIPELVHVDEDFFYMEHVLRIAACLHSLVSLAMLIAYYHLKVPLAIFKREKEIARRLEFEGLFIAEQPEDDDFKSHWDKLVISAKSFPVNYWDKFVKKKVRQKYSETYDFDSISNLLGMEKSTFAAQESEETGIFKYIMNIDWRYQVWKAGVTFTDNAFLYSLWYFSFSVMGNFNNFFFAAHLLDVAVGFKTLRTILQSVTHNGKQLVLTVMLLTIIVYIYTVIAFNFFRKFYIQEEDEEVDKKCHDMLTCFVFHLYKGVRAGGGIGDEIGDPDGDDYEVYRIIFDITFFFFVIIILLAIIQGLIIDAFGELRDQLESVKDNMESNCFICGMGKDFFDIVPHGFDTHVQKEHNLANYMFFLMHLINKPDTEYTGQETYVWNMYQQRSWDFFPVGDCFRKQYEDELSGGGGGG

In the case of `CNC(=O)c1cc(Cl)cc(C)c1NC(=O)c1cc(Br)nn1-c1ncccc1Cl` [chlorantraniliprole, 5-bromo-N-[4-chloro-2-methyl-6-(methylcarbamoyl)phenyl]-2-(3-chloropyridin-2-yl)pyrazole-3-carboxamide], the “Selectivity for insect ryanodine receptors over mammalian ryanodine receptors” value is listed as “excellent differential selectivity”.
